Data reported in article PMC9743092, “Membrane-Active Cyclic Amphiphilic Peptides: Broad-Spectrum Antibacterial Activity Alone and in Combination with Antibiotics” (Journal of Medicinal Chemistry, 2022).
In brackets after ≈: the same amount, converted by molar mass. Read-outs that look alike come from different tables or passages of the source. Peptide text beside a SMILES is read from it.

Experiments:
[1] = test system: human skin fibroblast cells (HeKa)
[2] = test system: normal lung (MRC-5) cells
MRSA (ATCC BAA-1556) [3] = experiment: microbe, parasite or virus in culture; details: Staphylococcus aureus
E. coli (ATCC 25922) [4] = experiment: microbe, parasite or virus in culture; details: Escherichia coli, ATCC25922, read-out: MIC E. coli (ATCC 25922)
[5] = test system: S. aureus (ATCC BAA-1556); experiment: Synergistic checkerboard assay; type: cell-based; details: Staphylococcus aureus, ATCCBAA1556; checkerboard; read-out: MIC antibiotic alone
[6] = test system: P. aeruginosa (ATCC 27883); experiment: microbe, parasite or virus in culture; details: Pseudomonas aeruginosa, ATCC27883, read-out: MIC P. aeruginosa (ATCC 27883)
[7] = test system: K. pneumoniae (ATCC BAA-1705); experiment: Synergistic checkerboard assay; details: Klebsiella pneumoniae, ATCCBAA1705, read-out: MIC antibiotic alone
[8] = test system: P. aeruginosa (ATCC 27883); experiment: Synergistic checkerboard assay; type: cell-based; details: Pseudomonas aeruginosa, ATCC27883; checkerboard; read-out: MIC antibiotic alone
E. coli (ATCC 25922) [9] = experiment: Synergistic checkerboard assay; type: cell-based; details: Escherichia coli, ATCC25922; checkerboard; read-out: MIC antibiotic alone
[10] = test system: K. pneumoniae (ATCC BAA-1705); experiment: microbe, parasite or virus in culture; details: Klebsiella pneumoniae, ATCCBAA1705, read-out: MIC K. pneumoniae (ATCC BAA-1705)
[11] = test system: K. pneumoniae (ATCC BAA-1705); experiment: microbe, parasite or virus in culture; details: Klebsiella pneumoniae, ATCCBAA1705, 24 h, read-out: MBC K. pneumoniae (ATCC BAA-1705)
E. coli (ATCC 25922) [12] = experiment: microbe, parasite or virus in culture; details: Escherichia coli, ATCC25922, 24 h, read-out: MBC E. coli (ATCC 25922)
[13] = test system: P. aeruginosa (ATCC 27883); experiment: microbe, parasite or virus in culture; details: Pseudomonas aeruginosa, ATCC27883, 24 h, read-out: MBC P. aeruginosa (ATCC 27883)
MRSA (ATCC BAA-1556) [14] = experiment: microbe, parasite or virus in culture; details: Staphylococcus aureus, ATCCBAA1556|MRSA, 24 h, read-out: MBC MRSA (ATCC BAA-1556)
[15] = test system: K. pneumoniae (ATCC BAA-1705); details: 24 h, ≥99.9% kill
[16] = test system: P. aeruginosa (ATCC 27883); details: 24 h, ≥99.9% kill
[17] = test system: human red blood cells (hRBCs); details: red cells of human, 2 h
E. coli (ATCC 25922) [18] = details: 24 h, ≥99.9% kill
MRSA (ATCC BAA-1556) [19] = details: antibiotic alone or physical mixture with peptide (1:1 w/w)
E. coli (ATCC 25922) [20] = details: antibiotic alone or physical mixture with peptide (1:1 w/w)
[21] = design: method as in PMID 25808204; details: cited from earlier work
[22] = read-out: MIC S. aureus (ATCC BAA-1556)

C[S+](C)[O-] [DMSO (30%), DMSO]
cell viability [1]: 7–11%
cell viability (liver (HepaRG) cells): 7–11%
cell viability [2]: 7–11%
cell viability (kidney (HEK-293) cells): 7–11%

NC[C@H]1O[C@H](O[C@H]2[C@H](O)[C@@H](O[C@H]3O[C@H](CO)[C@@H](O)[C@H](N)[C@H]3O)[C@H](N)C[C@@H]2N)[C@H](N)C[C@@H]1O [tobramycin]
MIC (MRSA (ATCC BAA-1556) [3]; [22]): 0.5 µg/mL (≈ 1.07 µM)
MIC (E. coli (ATCC 25922) [4]): 8 µg/mL (≈ 17.1 µM)
MIC [5]: 0.5 µg/mL
MIC [6]: 0.5 µg/mL (≈ 1.07 µM)
MIC [7]: 16 µg/mL
MIC [8]: 0.5 µg/mL
MIC (E. coli (ATCC 25922) [9]): 8 µg/mL
MIC [10]: 16 µg/mL (≈ 34.2 µM)

C[C@@H](O)[C@H]1C(=O)N2C(C(=O)O)=C(S[C@@H]3CN[C@H](C(=O)N(C)C)C3)[C@H](C)[C@H]12 [meropenem]
MIC (MRSA (ATCC BAA-1556) [3]; read-out: MIC MRSA (ATCC BAA-1556)): 2 µg/mL (≈ 5.22 µM)
MIC (MRSA (ATCC BAA-1556) [3]; [22]): 2 µg/mL (≈ 5.22 µM)
MIC (E. coli (ATCC 25922) [4]): 1 µg/mL (≈ 2.61 µM)
MBC [11]: 64 µg/mL (≈ 167 µM)
MIC [5]: 2 µg/mL
MBC (E. coli (ATCC 25922) [12]): 2 µg/mL (≈ 5.22 µM)
MIC [6]: 1 µg/mL (≈ 2.61 µM)
MBC [13]: 4 µg/mL (≈ 10.4 µM)
MIC [8]: 1 µg/mL
MBC (MRSA (ATCC BAA-1556) [14]): 8 µg/mL (≈ 20.9 µM)
MIC (E. coli (ATCC 25922) [9]): 1 µg/mL

N=C(N)NCCC[C@@H]1NC(=O)[C@H](CCCNC(=N)N)NC(=O)[C@H](CCCNC(=N)N)NC(=O)[C@H](Cc2c[nH]c3ccccc23)NC(=O)[C@H](Cc2c[nH]c3ccccc23)NC(=O)[C@H](Cc2c[nH]c3ccccc23)NC(=O)[C@H](Cc2c[nH]c3ccccc23)NC(=O)[C@H](CCCNC(=N)N)NC1=O [compound 1, [R4W4]] (cyclo(RRRRWWWW))
MBC K. pneumoniae (ATCC BAA-1705) [15]: 64 µg/mL (≈ 46.7 µM)
MBC P. aeruginosa (ATCC 27883) [16]: 128 µg/mL (≈ 93.5 µM)
HC50 [17]: 175 µg/mL
MBC E. coli (ATCC 25922) (E. coli (ATCC 25922) [18]): 32 µg/mL (≈ 23.4 µM)

O=C(O)c1cn(C2CC2)c2cc(N3CCNCC3)c(F)cc2c1=O [ciprofloxacin]
MBC [11]: 16 µg/mL (≈ 48.3 µM)
MIC S. aureus (ATCC BAA-1556) (MRSA (ATCC BAA-1556) [19]): 16 µg/mL (≈ 48.3 µM)
MIC [5]: 16 µg/mL
MBC (E. coli (ATCC 25922) [12]): 16 µg/mL (≈ 48.3 µM)
MBC [13]: 8 µg/mL (≈ 24.1 µM)
MBC (MRSA (ATCC BAA-1556) [14]): 32 µg/mL (≈ 96.6 µM)
MIC E. coli (ATCC 25922) (E. coli (ATCC 25922) [20]): 64 µg/mL (≈ 193 µM)

N=C(N)NCCC[C@H](N)C(=O)O [arginine]
pKa value of the arginine guanidinium group [21]: 13.8 ± 0.1
